Test results reported in patent US10577363B2, “Substituted piperidine compounds” (EPIZYME, INC., priority 2014, dated 2020).

Key:
[1] = target: T1, SMYD3 (Homo sapiens (Human), UniProt Q9H7B4); experiment: SMYD3 biochemical assay (SPA, 3H-SAM methylation of MEKK2 protein substrate)
How it was run: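 SPA methyltransferase format: tag-cleaved human SMYD3, insect-cell GST-MEKK2 protein substrate, 3H-SAM donor, 30 min RT enzyme–compound preincubation, 100 uM cold SAM quench.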

[2] = target: T1, SMYD3; experiment: SMYD3 cell assay (Trimethyl-MEKK2 In-Cell Western in 293T/17 cells); assay type: cell-based
How it was run: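 In-Cell Western readout: methanol-fixed cells stained for trimethyl-MEKK2 and flag tag, ratio per well normalized to DMSO and background controls.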

[3] = read-out: SMYD3 Biochem IC50 (μM)*
[4] = 293T/17 cells, read-out: SMYD3 Cell IC50 (μM)*
[5] = Table 1A, IC50 values are an average of n = 1 to n = 50, read-out: SMYD3 Cell IC50
[6] = Table 1A, IC50 values are an average of n = 1 to n = 50, read-out: SMYD3 Biochem IC50

T1 sequence (Q9H7B4 whole entry): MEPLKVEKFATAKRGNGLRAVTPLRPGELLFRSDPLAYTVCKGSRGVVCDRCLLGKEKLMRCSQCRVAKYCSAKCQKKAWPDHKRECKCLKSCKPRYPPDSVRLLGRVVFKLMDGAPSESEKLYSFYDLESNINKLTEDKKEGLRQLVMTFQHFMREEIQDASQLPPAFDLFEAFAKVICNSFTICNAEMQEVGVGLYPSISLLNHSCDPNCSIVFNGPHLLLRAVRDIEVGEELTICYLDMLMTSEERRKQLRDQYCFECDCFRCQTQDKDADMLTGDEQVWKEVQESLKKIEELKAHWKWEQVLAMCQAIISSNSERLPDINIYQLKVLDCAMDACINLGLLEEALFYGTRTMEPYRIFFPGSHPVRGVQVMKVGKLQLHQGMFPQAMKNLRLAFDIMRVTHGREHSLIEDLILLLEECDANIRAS

SMILES: C[C@H]1C[C@@H](NC(=O)c2cc(C3CC3)on2)CCN1S(=O)(=O)c1ccc(N(C)CCN)nc1 [compound 461, N-((2S,4S)-1-((6-((2-aminoethyl)(methyl)amino)pyridin-3-yl)sulfonyl)-2-methylpiperidin-4-yl)-5-cyclopropylisoxazole-3-carboxamide]
- IC50 [1, 3]: 0.0142 µM
- IC50 [2, 4]: 3.85 µM

SMILES: C[C@@H]1C[C@H](NC(=O)c2cc(C3CC3)on2)CCN1S(=O)(=O)c1ccc(N(C)CCN)nc1 [compound 463, N-((2R,4R)-1-((6-((2-aminoethyl)(methyl)amino)pyridin-3-yl)sulfonyl)-2-methylpiperidin-4-yl)-5-cyclopropylisoxazole-3-carboxamide]
- IC50 [1, 3]: 0.163 µM
- IC50 [2, 4]: 4.33 µM

SMILES: C[C@@H]1C[C@H](NC(=O)c2cc(C3CC3)on2)CCN1S(=O)(=O)c1ccc(NCCN)nc1 [compound 464, N-((2R,4R)-1-((6-((2-aminoethyl)amino)pyridin-3-yl)sulfonyl)-2-methylpiperidin-4-yl)-5-cyclopropylisoxazole-3-carboxamide]
- IC50 [1, 3]: 0.0897 µM
- IC50 [2, 4]: 3.3 µM

SMILES: CC(C)CNc1ccc(S(=O)(=O)N2C3CCCC2CC(NC(=O)c2cc(C4CC4)on2)C3)cn1 (stereo not drawn) [compound 465, 5-cyclopropyl-N-(9-((6-(isobutylamino)pyridin-3-yl)sulfonyl)-9-azabicyclo[3.3.1]nonan-3-yl)isoxazole-3-carboxamide]
- IC50 [1, 3]: 3.12 µM
- IC50 [2, 4]: 6.16 µM

SMILES: CNc1ncccc1S(=O)(=O)N1CC[C@H](NC(=O)c2cc(C3CC3)on2)C[C@@H]1C [compound 467, 5-cyclopropyl-N-((2S,4S)-2-methyl-1-((2-(methylamino)pyridin-3-yl)sulfonyl)piperidin-4-yl)isoxazole-3-carboxamide]
- IC50 [1, 3]: 3.74 µM
- IC50 [2, 4]: 5.76 µM

SMILES: C[C@H]1C[C@@H](NC(=O)c2cc(C3CC3)on2)CCN1S(=O)(=O)c1cccnc1NCCN [compound 475, N-((2S,4S)-1-((2-((2-aminoethyl)amino)pyridin-3-yl)sulfonyl)-2-methylpiperidin-4-yl)-5-cyclopropylisoxazole-3-carboxamide]
- IC50 [1, 3]: 0.0865 µM
- IC50 [2, 4]: 1.34 µM

SMILES: C[C@H]1C[C@@H](NC(=O)c2cc(C3CC3)on2)CCN1S(=O)(=O)c1cccc(C(N)=O)c1 [compound 477, N-((2S,4S)-1-((3-carbamoylphenyl)sulfonyl)-2-methylpiperidin-4-yl)-5-cyclopropylisoxazole-3-carboxamide]
- IC50 [1, 3]: 0.932 µM
- IC50 [2, 4]: 3.26 µM

SMILES: C[C@H]1C[C@@H](NC(=O)c2cc(C3CC3)on2)CCN1C(=O)N1CCN(Cc2ccccc2)CC1 [compound 478, N-((2S,4S)-1-(4-benzylpiperazine-1-carbonyl)-2-methylpiperidin-4-yl)-5-cyclopropylisoxazole-3-carboxamide]
- IC50 [1, 3]: > 10 µM
- IC50 [2, 4]: > 10 µM

SMILES: NCCCS(=O)(=O)N1CCC(NC(=O)c2cc(C3CC3)on2)C[C@@H]1c1ccccc1 (stereo partly drawn) [compound 480, N-((2R)-1-((3-aminopropyl)sulfonyl)-2-phenylpiperidin-4-yl)-5-cyclopropylisoxazole-3-carboxamide]
- IC50 [1, 3]: 0.0658 µM
- IC50 [2, 4]: 2.24 µM

SMILES: NCCCS(=O)(=O)N1CCC(NC(=O)c2cc(C3CC3)on2)C[C@H]1c1ccccc1 (stereo partly drawn) [compound 481, N-((2S)-1-((3-aminopropyl)sulfonyl)-2-phenylpiperidin-4-yl)-5-cyclopropylisoxazole-3-carboxamide]
- IC50 [1, 3]: 0.479 µM
- IC50 [2, 4]: 4.47 µM

SMILES: C[C@H]1C[C@@H](NC(=O)c2cc(C3CC3)on2)CCN1S(=O)(=O)C1CCOC1 (stereo partly drawn) [compound 482, 5-cyclopropyl-N-((2S,4S)-2-methyl-1-((tetrahydrofuran-3-yl)sulfonyl)piperidin-4-yl)isoxazole-3-carboxamide]
- IC50 [1, 3]: 0.928 µM
- IC50 [2, 4]: 2.83 µM

SMILES: C[C@H]1C[C@@H](NC(=O)c2cc(C3CC3)on2)CCN1S(=O)(=O)c1c[nH]cn1 [compound 483, N-((2S,4S)-1-((1H-imidazol-4-yl)sulfonyl)-2-methylpiperidin-4-yl)-5-cyclopropylisoxazole-3-carboxamide]
- IC50 [1, 3]: 0.533 µM
- IC50 [2, 4]: 2.13 µM

SMILES: NCCCS(=O)(=O)N1[C@@H]2CC[C@H]1C[C@H](NC(=O)c1cc(C3CC3)on1)C2 [compound 484, N-((1R,3s,5S)-8-((3-aminopropyl)sulfonyl)-8-azabicyclo[3.2.1]octan-3-yl)-5-cyclopropylisoxazole-3-carboxamide]
- IC50 [1, 3]: 0.0792 µM
- IC50 [2, 4]: 1.44 µM

SMILES: O=C(NC1CC2CCCC(C1)N2S(=O)(=O)CC1CCCNC1)c1cc(C2CC2)on1 (stereo not drawn) [compound 488, 5-cyclopropyl-N-(9-((piperidin-3-ylmethyl)sulfonyl)-9-azabicyclo[3.3.1]nonan-3-yl)isoxazole-3-carboxamide]
- IC50 ([1]; read-out: SMYD3 Biochem IC50): 0.0451 µM
- IC50 [2, 5]: 0.857 µM

SMILES: O=C(Nc1ccc(S(=O)(=O)N2[C@@H]3CC[C@H]2C[C@H](NC(=O)c2cc(C4CC4)on2)C3)cc1)c1ccncc1 [compound 489, 5-cyclopropyl-N-((1R,3s,5S)-8-((4-(isonicotinamido)phenyl)sulfonyl)-8-azabicyclo[3.2.1]octan-3-yl)isoxazole-3-carboxamide]
- IC50 [1, 6]: 5.42 µM
- IC50 [2, 5]: 6.66 µM

SMILES: O=C1Cc2cc(S(=O)(=O)N3[C@@H]4CC[C@H]3C[C@H](NC(=O)c3cc(C5CC5)on3)C4)c(Cl)cc2N1 [compound 490, N-((1R,3s,5S)-8-((6-chloro-2-oxoindolin-5-yl)sulfonyl)-8-azabicyclo[3.2.1]octan-3-yl)-5-cyclopropylisoxazole-3-carboxamide]
- IC50 [1, 6]: 9.23 µM
- IC50 [2, 5]: > 10 µM

SMILES: O=C(N[C@@H]1C[C@H]2CC[C@@H](C1)N2S(=O)(=O)c1cc2oc(=O)[nH]c2cc1Cl)c1cc(C2CC2)on1 [compound 491, N-((1R,3s,5S)-8-((5-chloro-2-oxo-2,3-dihydrobenzo[d]oxazol-6-yl)sulfonyl)-8-azabicyclo[3.2.1]octan-3-yl)-5-cyclopropylisoxazole-3-carboxamide]
- IC50 [1, 6]: > 10 µM
- IC50 [2, 5]: > 10 µM

SMILES: O=C1Cc2cc(S(=O)(=O)N3[C@@H]4CC[C@H]3C[C@H](NC(=O)c3cc(C5CC5)on3)C4)ccc2N1 [compound 493, 5-cyclopropyl-N-((1R,3s,5S)-8-((2-oxoindolin-5-yl)sulfonyl)-8-azabicyclo[3.2.1]octan-3-yl)isoxazole-3-carboxamide]
- IC50 [1, 6]: 0.842 µM
- IC50 [2, 5]: 2.75 µM

SMILES: O=C(N[C@@H]1C[C@H]2CC[C@@H](C1)N2S(=O)(=O)CCCN1CCOCC1)c1cc(C2CC2)on1 [compound 495, 5-cyclopropyl-N-((1R,3s,5S)-8-((3-morpholinopropyl)sulfonyl)-8-azabicyclo[3.2.1]octan-3-yl)isoxazole-3-carboxamide]
- IC50 [1, 6]: > 10 µM
- IC50 [2, 5]: > 10 µM

SMILES: O=C(N[C@H]1C[C@H]2CC[C@@H](C1)N2S(=O)(=O)CCCN1CCOCC1)c1cc(C2CC2)on1 [compound 496, 5-cyclopropyl-N-((1R,3r,5S)-8-((3-morpholinopropyl)sulfonyl)-8-azabicyclo[3.2.1]octan-3-yl)isoxazole-3-carboxamide]
- IC50 [1, 6]: 0.162 µM
- IC50 [2, 5]: 0.854 µM

SMILES: O=C(N[C@H]1CCN(S(=O)(=O)CCCN2CCOCC2)[C@@H](Cc2ccccc2)C1)c1cc(C2CC2)on1 [compound 497, N-((2S,4S)-2-benzyl-1-((3-morpholinopropyl)sulfonyl)piperidin-4-yl)-5-cyclopropylisoxazole-3-carboxamide]
- IC50 [1, 6]: > 10 µM
- IC50 [2, 5]: > 10 µM
